Toxic doses and inconclusive results are not listed.
Tested on: L1210 leukemia ip in BDF1 mice, survival T/C
Assay: NCI In Vivo Anticancer Drug Screen. Data for tumor model L1210 Leukemia (intraperitoneal) in B6D2F1 (BDF1) mice
Conditions: endpoint: mean survival time, higher = longer survival
Outline: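 Transplanted-tumor mice were given test agent; controls received vehicle only. Survival readings from the two groups were divided (treated over control).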

[1] = dose: 100.0 mg/kg/injection, schedule: Q01DX001 (ip), vehicle: saline
[2] = dose: 100.0 mg/kg/injection, schedule: Q04DX003 (ip), vehicle: Klucel (hydroxypropylcellulose) (HPC)
[3] = dose: 200.0 mg/kg/injection, schedule: Q01DX001 (ip), vehicle: saline
[4] = dose: 200.0 mg/kg/injection, schedule: Q04DX003 (ip), vehicle: Klucel (hydroxypropylcellulose) (HPC)
[5] = dose: 400.0 mg/kg/injection, schedule: Q01DX001 (ip), vehicle: saline
[6] = dose: 100.0 mg/kg/injection, schedule: Q04DX003 (ip), vehicle: saline with Tween-80
[7] = dose: 200.0 mg/kg/injection, schedule: Q04DX003 (ip), vehicle: saline with Tween-80
[8] = dose: 400.0 mg/kg/injection, schedule: Q04DX003 (ip), vehicle: saline with Tween-80

Q: Which results are given for `CCC1(CC)COC(=O)NC1=O`?
A: T/C (dose: 1.56 mg/kg/injection, schedule: Q01DX009 (ip), vehicle: saline): 105 % of control; T/C (dose: 3.12 mg/kg/injection, schedule: Q01DX009 (ip), vehicle: saline): 116 % of control; T/C (dose: 6.25 mg/kg/injection, schedule: Q01DX009 (ip), vehicle: saline): 103 % of control; T/C (dose: 6.25 mg/kg/injection, schedule: Q04DX003 (ip), vehicle: saline): 101 % of control; T/C (dose: 12.5 mg/kg/injection, schedule: Q01DX009 (ip), vehicle: saline): 103 % of control; T/C (dose: 12.5 mg/kg/injection, schedule: Q04DX003 (ip), vehicle: saline): 101 % of control; T/C (dose: 25.0 mg/kg/injection, schedule: Q01DX009 (ip), vehicle: saline): 97 % of control; T/C (dose: 25.0 mg/kg/injection, schedule: Q04DX003 (ip), vehicle: saline): 87 % of control

Q: Which results are given for `CNC(=O)Oc1cccc(CN(C)C)c1`?
A: T/C (dose: 5.0 mg/kg/injection, schedule: Q01DX001 (ip), vehicle: saline): 98 % of control; T/C (dose: 10.0 mg/kg/injection, schedule: Q01DX001 (ip), vehicle: saline): 96 % of control; T/C (dose: 20.0 mg/kg/injection, schedule: Q01DX001 (ip), vehicle: saline): 96 % of control

Q: How did the T/C (dose: 100.0 mg/kg/injection, schedule: Q01DX001 (ip), vehicle: Klucel (hydroxypropylcellulose) (HPC)) turn out when `COC(=O)C1CCC2C3CCC4CC(O)CCC4(C)C3CCC12C` (stereo not given) was run?
A: The T/C was 110 % of control.

Q: What about the T/C (dose: 200.0 mg/kg/injection, schedule: Q01DX001 (ip), vehicle: Klucel (hydroxypropylcellulose) (HPC)) of the same compound?
A: The T/C was 100 % of control.

Q: And the T/C (dose: 400.0 mg/kg/injection, schedule: Q01DX001 (ip), vehicle: Klucel (hydroxypropylcellulose) (HPC))?
A: The T/C was 95 % of control.

Q: `[O-]/[N+](=C\c1cccc(Cl)c1)c1ccccc1` was tested. Which T/C (dose: 50.0 mg/kg/injection, schedule: Q01DX001 (ip), vehicle: saline) did it give?
A: Its T/C is 102 % of control.

Q: And the T/C [1]?
A: Its T/C is 100 % of control.

Q: What about the T/C [2] of the same compound?
A: The T/C was 107 % of control.

Q: What about the T/C [3] of the same compound?
A: Its T/C is 100 % of control.

Q: What about the T/C [4] of the same compound?
A: The T/C was 100 % of control.

Q: And the T/C [5]?
A: The T/C was 112 % of control.

Q: For `O=C(CBr)c1cccc2c1Nc1ccccc1S2`, which T/C (dose: 75.0 mg/kg/injection, schedule: Q01DX001 (ip), vehicle: saline) is on record?
A: The T/C was 98 % of control.

Q: With `O=C1CSC2=NCCN12` as the compound, how does the T/C [1] read?
A: The T/C was 99 % of control.

Q: And the T/C (dose: 100.0 mg/kg/injection, schedule: Q04DX003 (ip), vehicle: saline)?
A: Its T/C is 93 % of control.

Q: What about the T/C [3] of the same compound?
A: Its T/C is 99 % of control.

Q: And the T/C (dose: 200.0 mg/kg/injection, schedule: Q04DX003 (ip), vehicle: saline)?
A: Its T/C is 98 % of control.

Q: What about the T/C [5] of the same compound?
A: Its T/C is 92 % of control.

Q: `CCC1(Sc2ncnc3nc[nH]c23)C(=O)NC(=O)NC1=O` was tested. Which T/C (dose: 6.25 mg/kg/injection, schedule: Q01DX015 (ip), vehicle: alkali diluted with saline) did it give?
A: The T/C was 124 % of control.

Q: What about the T/C (dose: 22.0 mg/kg/injection, schedule: Q01DX015 (ip), vehicle: saline) of the same compound?
A: The T/C was 154 % of control.

Q: What about the T/C (dose: 33.0 mg/kg/injection, schedule: Q01DX015 (ip), vehicle: saline) of the same compound?
A: Its T/C is 157 % of control.

Q: And the T/C (dose: 50.0 mg/kg/injection, schedule: Q01DX015 (ip), vehicle: saline)?
A: Its T/C is 164 % of control.

Q: And the T/C (dose: 75.0 mg/kg/injection, schedule: Q01DX015 (ip), vehicle: saline)?
A: The T/C was 183 % of control.

Q: And the T/C (dose: 100.0 mg/kg/injection, schedule: Q01DX001 (ip), vehicle: alkali diluted with saline)?
A: The T/C was 103 % of control.

Q: What about the T/C (dose: 200.0 mg/kg/injection, schedule: Q01DX001 (ip), vehicle: alkali diluted with saline) of the same compound?
A: Its T/C is 106 % of control.

Q: And the T/C (dose: 200.0 mg/kg/injection, schedule: Q01DX015 (ip), vehicle: alkali diluted with saline)?
A: Its T/C is 166 % of control.

Q: What about the T/C (dose: 400.0 mg/kg/injection, schedule: Q01DX001 (ip), vehicle: alkali diluted with saline) of the same compound?
A: Its T/C is 114 % of control.

Q: And the T/C (dose: 400.0 mg/kg/injection, schedule: Q01DX015 (ip), vehicle: alkali diluted with saline)?
A: Its T/C is 109 % of control.

Q: How did the T/C (dose: 75.0 mg/kg/injection, schedule: Q01DX009 (ip), vehicle: Klucel (hydroxypropylcellulose) (HPC)) turn out when `c1ccc(CNNCc2ccccc2)cc1` was run?
A: The T/C was 102 % of control.

Q: And the T/C [2]?
A: The T/C was 102 % of control.

Q: And the T/C (dose: 150.0 mg/kg/injection, schedule: Q01DX009 (ip), vehicle: Klucel (hydroxypropylcellulose) (HPC))?
A: Its T/C is 109 % of control.

Q: And the T/C [4]?
A: Its T/C is 94 % of control.

Q: Which results are given for `Cc1cccc(C2=N/C(=C\c3cccc([N+](=O)[O-])c3)C(=O)O2)c1`?
A: T/C (dose: 100.0 mg/kg/injection, schedule: Q04DX002 (ip), vehicle: Klucel (hydroxypropylcellulose) (HPC)): 92 % of control; T/C (dose: 200.0 mg/kg/injection, schedule: Q04DX002 (ip), vehicle: Klucel (hydroxypropylcellulose) (HPC)): 92 % of control; T/C (dose: 400.0 mg/kg/injection, schedule: Q04DX002 (ip), vehicle: Klucel (hydroxypropylcellulose) (HPC)): 100 % of control

Q: Which T/C [6] does the source give for `CC(C)CCCC(C)C1CCC2(C)C3=C(C(=O)CC12C)C1(C)CCC(O)C(C)(C)C1/C(=N\O)C3=O` (stereo not given) here?
A: The T/C was 94 % of control.

Q: What about the T/C [7] of the same compound?
A: The T/C was 96 % of control.

Q: What about the T/C [8] of the same compound?
A: The T/C was 97 % of control.

Q: How did the T/C (dose: 100.0 mg/kg/injection, schedule: Q01DX009 (ip), vehicle: saline with Tween-80) turn out when `NCC(OCC(=O)O)C(Cl)(Cl)Cl` (stereo not given) was run?
A: Its T/C is 93 % of control.

Q: What about the T/C (dose: 200.0 mg/kg/injection, schedule: Q01DX009 (ip), vehicle: saline with Tween-80) of the same compound?
A: Its T/C is 95 % of control.

Q: What about the T/C (dose: 400.0 mg/kg/injection, schedule: Q01DX009 (ip), vehicle: saline with Tween-80) of the same compound?
A: Its T/C is 90 % of control.

Q: With `CC(=O)Nc1ccc(S(=O)(=O)NC(=O)NCCC(C)C)cc1` as the compound, how does the T/C [6] read?
A: The T/C was 94 % of control.

Q: And the T/C [7]?
A: Its T/C is 102 % of control.

Q: And the T/C [8]?
A: The T/C was 102 % of control.

Q: With `CC(C)=NOC(N)=O` as the compound, how does the T/C (dose: 50.0 mg/kg/injection, schedule: Q01DX Z (ip), vehicle: water) read?
A: The T/C was 108 % of control.

Q: What about the T/C (dose: 100.0 mg/kg/injection, schedule: Q01DX Z (ip), vehicle: water) of the same compound?
A: Its T/C is 100 % of control.

Q: And the T/C (dose: 200.0 mg/kg/injection, schedule: Q01DX Z (ip), vehicle: water)?
A: Its T/C is 100 % of control.

Q: And the T/C (dose: 400.0 mg/kg/injection, schedule: Q01DX Z (ip), vehicle: water)?
A: The T/C was 100 % of control.

Q: `CCOP(OCC)SSCn1nc2ccc3ccccc3n2c1=O` was tested. Which T/C (dose: 50.0 mg/kg/injection, schedule: Q01DX009 (ip), vehicle: Klucel (hydroxypropylcellulose) (HPC)) did it give?
A: The T/C was 101 % of control.

Q: What does the source list for `COc1ccc(CCC(=O)O)cc1`?
A: T/C (dose: 50.0 mg/kg/injection, schedule: Q04DX003 (ip), vehicle: gum acacia): 98 % of control; T/C (dose: 100.0 mg/kg/injection, schedule: Q04DX003 (ip), vehicle: gum acacia): 98 % of control; T/C (dose: 200.0 mg/kg/injection, schedule: Q04DX003 (ip), vehicle: gum acacia): 95 % of control

Q: `CC(C)N(CCNCC(Cc1ccccc1)c1ccccc1)C(C)C` (stereo not given) was tested. Which T/C (dose: 25.0 mg/kg/injection, schedule: Q04DX002 (ip), vehicle: saline with Tween-80) did it give?
A: The T/C was 99 % of control.

Q: And the T/C (dose: 50.0 mg/kg/injection, schedule: Q04DX002 (ip), vehicle: saline with Tween-80)?
A: The T/C was 96 % of control.

Q: What about the T/C (dose: 100.0 mg/kg/injection, schedule: Q04DX002 (ip), vehicle: saline with Tween-80) of the same compound?
A: Its T/C is 102 % of control.

Q: `CC(=O)NC1C(OC(=O)c2ccccc2)OC(CO)C(O)C1OC(=O)c1ccccc1` (stereo not given) was tested. Which T/C (dose: 100.0 mg/kg/injection, schedule: Q01DX001 (ip), vehicle: saline with Tween-80) did it give?
A: Its T/C is 101 % of control.

Q: What about the T/C (dose: 200.0 mg/kg/injection, schedule: Q01DX001 (ip), vehicle: saline with Tween-80) of the same compound?
A: Its T/C is 105 % of control.

Q: And the T/C (dose: 400.0 mg/kg/injection, schedule: Q01DX001 (ip), vehicle: saline with Tween-80)?
A: Its T/C is 94 % of control.

Q: Which T/C [6] does the source give for `O=C1c2ccccc2C(=O)N1CN1CCC(CCCC2CCN(CN3C(=O)c4ccccc4C3=O)CC2)CC1` here?
A: The T/C was 92 % of control.

Q: What does the source list for `O=C(O)C(=C/c1ccccc1)/C(=C\c1ccccc1)C(=O)O`?
A: T/C [1]: 103 % of control; T/C (dose: 100.0 mg/kg/injection, schedule: Q01DX009 (ip), vehicle: saline): 89 % of control; T/C [3]: 105 % of control; T/C (dose: 200.0 mg/kg/injection, schedule: Q01DX009 (ip), vehicle: saline): 93 % of control; T/C [5]: 97 % of control; T/C (dose: 400.0 mg/kg/injection, schedule: Q01DX009 (ip), vehicle: saline): 90 % of control

Q: For `CCOC(=O)COc1cc(Cl)c(Cl)cc1Cl`, which T/C (dose: 75.0 mg/kg/injection, schedule: Q01DX009 (ip), vehicle: gum acacia) is on record?
A: The T/C was 110 % of control.

Q: And the T/C (dose: 100.0 mg/kg/injection, schedule: Q04DX002 (ip), vehicle: gum acacia)?
A: The T/C was 100 % of control.

Q: And the T/C (dose: 200.0 mg/kg/injection, schedule: Q04DX002 (ip), vehicle: gum acacia)?
A: The T/C was 118 % of control.

Q: And the T/C (dose: 400.0 mg/kg/injection, schedule: Q04DX002 (ip), vehicle: gum acacia)?
A: The T/C was 92 % of control.

Q: What does the source list for `CCCC(C(=O)OCCN1CCCC12CCCCC2)C1CCCC1` (stereo not given)?
A: T/C (dose: 13.0 mg/kg/injection, schedule: Q01DX Z (ip), vehicle: methylcellulose (MC)): 92 % of control; T/C (dose: 20.0 mg/kg/injection, schedule: Q01DX Z (ip), vehicle: methylcellulose (MC)): 91 % of control; T/C (dose: 30.0 mg/kg/injection, schedule: Q01DX Z (ip), vehicle: methylcellulose (MC)): 88 % of control
